Measured values reported in publication PMC5053573, “Structure-Based Design of Tetrahydroisoquinoline-7-carboxamides as Selective Discoidin Domain Receptor 1 (DDR1) Inhibitors” (Journal of Medicinal Chemistry, 2016).

Key:
Assay in all cases: biochemical
Conditions in all cases: read-out: %Ctrl @ 1000nM
PIK3CG = PIK3CG (Homo sapiens, UniProt P48736)
[1] = biological target: ABL1(F317I)-phosphorylated (Homo sapiens, UniProt P00519, F317I)
BRAF(V600E) = BRAF(V600E) (Homo sapiens, UniProt P15056, V600E)
KIT(D816H) = KIT(D816H) (Homo sapiens, UniProt P10721, D816H)
FLT4 = FLT4 (Homo sapiens, UniProt P35916)
MAP3K4 = MAP3K4 (Homo sapiens, UniProt Q9Y6R4)
[2] = biological target: JAK1(JH2domain-pseudokinase) (Homo sapiens, UniProt P23458)
S6K1 = biological target: T1, S6K1 (Homo sapiens, UniProt P23443)
T1 construct: gene RPS6KB1

CDK8 = CDK8 (Homo sapiens, UniProt P49336)
MEK3 = biological target: T2, MEK3 (Homo sapiens, UniProt P46734)
T2 construct: gene MAP2K3
T2 sequence (P46734 whole entry): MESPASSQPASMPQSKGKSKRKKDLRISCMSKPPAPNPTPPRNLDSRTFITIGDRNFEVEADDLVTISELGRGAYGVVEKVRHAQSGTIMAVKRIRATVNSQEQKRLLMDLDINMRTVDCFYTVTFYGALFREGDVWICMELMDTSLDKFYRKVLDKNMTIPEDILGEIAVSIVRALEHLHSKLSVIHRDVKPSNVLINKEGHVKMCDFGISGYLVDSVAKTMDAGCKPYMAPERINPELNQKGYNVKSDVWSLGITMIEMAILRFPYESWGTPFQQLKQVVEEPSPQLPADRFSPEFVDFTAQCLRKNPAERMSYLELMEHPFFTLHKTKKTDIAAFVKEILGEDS

PRKG2 = PRKG2 (Homo sapiens, UniProt Q13237)
MAPKAPK2 = MAPKAPK2 (Homo sapiens, UniProt P49137)
AURKC = AURKC (Homo sapiens, UniProt Q9UQB9)
CLK2 = CLK2 (Homo sapiens, UniProt P49760)
TEC = TEC (Homo sapiens, UniProt P42680)
EGFR(L858R,T790M) = EGFR(L858R,T790M) (Homo sapiens, UniProt P00533, L858R/T790M)
Sequence of EGFR(L858R,T790M) (P00533 whole entry T790M/L858R): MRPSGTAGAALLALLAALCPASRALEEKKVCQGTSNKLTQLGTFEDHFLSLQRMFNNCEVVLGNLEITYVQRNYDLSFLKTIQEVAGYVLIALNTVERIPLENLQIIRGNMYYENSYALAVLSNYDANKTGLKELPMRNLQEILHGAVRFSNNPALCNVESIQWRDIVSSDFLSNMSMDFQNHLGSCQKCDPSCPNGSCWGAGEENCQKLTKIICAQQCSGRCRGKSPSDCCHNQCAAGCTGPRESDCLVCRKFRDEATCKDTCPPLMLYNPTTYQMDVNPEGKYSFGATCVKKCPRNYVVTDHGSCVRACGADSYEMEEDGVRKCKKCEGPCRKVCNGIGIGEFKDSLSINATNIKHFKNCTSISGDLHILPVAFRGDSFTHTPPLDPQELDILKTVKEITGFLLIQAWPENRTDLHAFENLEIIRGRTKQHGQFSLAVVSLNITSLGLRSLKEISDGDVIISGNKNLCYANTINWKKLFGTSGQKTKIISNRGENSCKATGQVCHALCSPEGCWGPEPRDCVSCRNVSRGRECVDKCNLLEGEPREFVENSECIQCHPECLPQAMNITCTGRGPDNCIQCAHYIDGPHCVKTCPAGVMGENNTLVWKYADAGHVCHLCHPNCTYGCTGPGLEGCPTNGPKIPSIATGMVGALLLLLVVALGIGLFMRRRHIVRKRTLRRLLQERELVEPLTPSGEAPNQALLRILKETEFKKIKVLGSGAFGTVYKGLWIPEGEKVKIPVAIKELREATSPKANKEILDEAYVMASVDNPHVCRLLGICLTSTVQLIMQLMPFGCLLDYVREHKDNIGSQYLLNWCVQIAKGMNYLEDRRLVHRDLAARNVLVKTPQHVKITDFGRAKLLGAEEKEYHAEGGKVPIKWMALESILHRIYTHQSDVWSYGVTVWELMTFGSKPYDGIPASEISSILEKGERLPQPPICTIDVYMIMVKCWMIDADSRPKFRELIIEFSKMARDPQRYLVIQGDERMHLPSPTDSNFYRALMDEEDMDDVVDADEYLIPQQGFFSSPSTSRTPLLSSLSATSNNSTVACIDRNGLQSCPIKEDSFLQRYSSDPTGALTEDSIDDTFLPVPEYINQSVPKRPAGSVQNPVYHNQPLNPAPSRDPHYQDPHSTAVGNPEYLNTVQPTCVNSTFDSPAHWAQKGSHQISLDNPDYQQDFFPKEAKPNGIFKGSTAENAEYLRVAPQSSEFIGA

LRRK2 = LRRK2 (Homo sapiens, UniProt Q5S007)
KIT-autoinhibited = KIT-autoinhibited (Homo sapiens, UniProt P10721)
PRKD1 = PRKD1 (Homo sapiens, UniProt Q15139)
RET = RET (Homo sapiens, UniProt P07949)
AMPK-alpha1 = biological target: T3, AMPK-alpha1 (Homo sapiens, UniProt Q13131)
T3 construct: gene PRKAA1

CASK = CASK (Homo sapiens, UniProt O14936)
FLT3 = FLT3 (Homo sapiens, UniProt P36888)
Sequence of FLT3 (P36888 whole entry): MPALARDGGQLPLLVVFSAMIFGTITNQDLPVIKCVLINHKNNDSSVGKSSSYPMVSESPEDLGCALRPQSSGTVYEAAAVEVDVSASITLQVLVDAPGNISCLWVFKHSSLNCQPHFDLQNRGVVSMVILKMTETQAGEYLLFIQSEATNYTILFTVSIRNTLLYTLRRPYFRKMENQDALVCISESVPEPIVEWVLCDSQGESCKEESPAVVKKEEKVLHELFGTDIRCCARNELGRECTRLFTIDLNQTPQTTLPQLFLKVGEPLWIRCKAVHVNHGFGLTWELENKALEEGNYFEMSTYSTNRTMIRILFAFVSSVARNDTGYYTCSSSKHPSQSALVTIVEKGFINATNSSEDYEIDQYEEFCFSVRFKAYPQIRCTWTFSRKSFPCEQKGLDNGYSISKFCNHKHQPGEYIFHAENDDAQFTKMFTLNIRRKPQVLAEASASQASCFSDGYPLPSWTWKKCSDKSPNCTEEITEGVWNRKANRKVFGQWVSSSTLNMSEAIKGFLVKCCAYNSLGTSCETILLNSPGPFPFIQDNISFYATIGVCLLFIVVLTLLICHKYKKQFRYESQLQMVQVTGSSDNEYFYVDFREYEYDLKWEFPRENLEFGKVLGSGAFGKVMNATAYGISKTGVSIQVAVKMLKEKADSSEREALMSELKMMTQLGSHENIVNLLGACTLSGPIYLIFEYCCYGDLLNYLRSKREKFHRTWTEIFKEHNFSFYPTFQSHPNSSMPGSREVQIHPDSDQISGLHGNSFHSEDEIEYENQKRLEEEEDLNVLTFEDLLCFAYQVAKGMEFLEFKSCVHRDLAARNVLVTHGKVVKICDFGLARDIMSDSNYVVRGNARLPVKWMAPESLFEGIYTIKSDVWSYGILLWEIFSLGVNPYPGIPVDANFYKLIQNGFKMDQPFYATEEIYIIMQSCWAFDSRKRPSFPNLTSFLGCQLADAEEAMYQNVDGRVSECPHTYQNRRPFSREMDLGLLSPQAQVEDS

BRSK1 = BRSK1 (Homo sapiens, UniProt Q8TDC3)
CSNK2A2 = CSNK2A2 (Homo sapiens, UniProt P19784)
CDK3 = CDK3 (Homo sapiens, UniProt Q00526)
PFTAIRE2 = biological target: T4, PFTAIRE2 (Homo sapiens, UniProt Q96Q40)
T4 construct: gene CDK15

ITK = ITK (Homo sapiens, UniProt Q08881)
Sequence of ITK (Q08881 whole entry): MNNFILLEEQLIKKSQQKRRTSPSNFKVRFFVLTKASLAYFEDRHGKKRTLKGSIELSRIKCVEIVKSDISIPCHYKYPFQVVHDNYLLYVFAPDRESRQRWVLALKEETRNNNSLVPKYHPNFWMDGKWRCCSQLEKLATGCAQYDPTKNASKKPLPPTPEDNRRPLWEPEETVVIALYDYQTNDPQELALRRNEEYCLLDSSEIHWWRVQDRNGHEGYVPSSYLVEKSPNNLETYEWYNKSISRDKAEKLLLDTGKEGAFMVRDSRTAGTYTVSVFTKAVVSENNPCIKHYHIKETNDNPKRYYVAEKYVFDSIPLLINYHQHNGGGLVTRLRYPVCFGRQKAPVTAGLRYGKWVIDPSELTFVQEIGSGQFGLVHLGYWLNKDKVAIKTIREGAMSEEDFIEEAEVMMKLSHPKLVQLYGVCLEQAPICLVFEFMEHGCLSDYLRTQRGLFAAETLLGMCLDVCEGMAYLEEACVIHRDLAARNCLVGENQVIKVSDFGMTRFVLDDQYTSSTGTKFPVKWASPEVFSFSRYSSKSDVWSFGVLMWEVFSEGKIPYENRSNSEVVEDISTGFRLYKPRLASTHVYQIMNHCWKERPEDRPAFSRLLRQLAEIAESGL

ANKK1 = ANKK1 (Homo sapiens, UniProt Q8NFD2)
Sequence of ANKK1 (Q8NFD2 whole entry): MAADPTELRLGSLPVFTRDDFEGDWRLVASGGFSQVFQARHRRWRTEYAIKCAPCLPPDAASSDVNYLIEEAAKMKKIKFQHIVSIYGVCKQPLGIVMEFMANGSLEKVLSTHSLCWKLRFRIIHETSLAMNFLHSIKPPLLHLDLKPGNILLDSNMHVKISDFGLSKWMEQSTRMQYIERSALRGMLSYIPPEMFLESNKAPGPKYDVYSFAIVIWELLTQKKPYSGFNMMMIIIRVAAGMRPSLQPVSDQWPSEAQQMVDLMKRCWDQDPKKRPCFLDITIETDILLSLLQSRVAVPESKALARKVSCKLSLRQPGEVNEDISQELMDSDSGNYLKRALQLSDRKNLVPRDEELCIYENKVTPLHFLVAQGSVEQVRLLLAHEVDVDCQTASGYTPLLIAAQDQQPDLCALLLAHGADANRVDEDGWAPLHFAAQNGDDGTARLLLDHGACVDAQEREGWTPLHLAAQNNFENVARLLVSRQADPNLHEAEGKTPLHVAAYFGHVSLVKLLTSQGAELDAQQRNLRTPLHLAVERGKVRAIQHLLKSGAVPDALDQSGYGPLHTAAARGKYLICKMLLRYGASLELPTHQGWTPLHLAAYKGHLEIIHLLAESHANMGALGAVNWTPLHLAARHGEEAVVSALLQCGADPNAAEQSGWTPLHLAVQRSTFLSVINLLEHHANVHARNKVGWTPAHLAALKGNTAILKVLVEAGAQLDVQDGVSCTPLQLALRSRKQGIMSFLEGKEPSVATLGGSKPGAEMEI

PAK1 = PAK1 (Homo sapiens, UniProt Q13153)
PIK3CA(Q546K) = PIK3CA(Q546K) (Homo sapiens, UniProt P42336, Q546K)
Sequence of PIK3CA(Q546K) (P42336 whole entry Q546K): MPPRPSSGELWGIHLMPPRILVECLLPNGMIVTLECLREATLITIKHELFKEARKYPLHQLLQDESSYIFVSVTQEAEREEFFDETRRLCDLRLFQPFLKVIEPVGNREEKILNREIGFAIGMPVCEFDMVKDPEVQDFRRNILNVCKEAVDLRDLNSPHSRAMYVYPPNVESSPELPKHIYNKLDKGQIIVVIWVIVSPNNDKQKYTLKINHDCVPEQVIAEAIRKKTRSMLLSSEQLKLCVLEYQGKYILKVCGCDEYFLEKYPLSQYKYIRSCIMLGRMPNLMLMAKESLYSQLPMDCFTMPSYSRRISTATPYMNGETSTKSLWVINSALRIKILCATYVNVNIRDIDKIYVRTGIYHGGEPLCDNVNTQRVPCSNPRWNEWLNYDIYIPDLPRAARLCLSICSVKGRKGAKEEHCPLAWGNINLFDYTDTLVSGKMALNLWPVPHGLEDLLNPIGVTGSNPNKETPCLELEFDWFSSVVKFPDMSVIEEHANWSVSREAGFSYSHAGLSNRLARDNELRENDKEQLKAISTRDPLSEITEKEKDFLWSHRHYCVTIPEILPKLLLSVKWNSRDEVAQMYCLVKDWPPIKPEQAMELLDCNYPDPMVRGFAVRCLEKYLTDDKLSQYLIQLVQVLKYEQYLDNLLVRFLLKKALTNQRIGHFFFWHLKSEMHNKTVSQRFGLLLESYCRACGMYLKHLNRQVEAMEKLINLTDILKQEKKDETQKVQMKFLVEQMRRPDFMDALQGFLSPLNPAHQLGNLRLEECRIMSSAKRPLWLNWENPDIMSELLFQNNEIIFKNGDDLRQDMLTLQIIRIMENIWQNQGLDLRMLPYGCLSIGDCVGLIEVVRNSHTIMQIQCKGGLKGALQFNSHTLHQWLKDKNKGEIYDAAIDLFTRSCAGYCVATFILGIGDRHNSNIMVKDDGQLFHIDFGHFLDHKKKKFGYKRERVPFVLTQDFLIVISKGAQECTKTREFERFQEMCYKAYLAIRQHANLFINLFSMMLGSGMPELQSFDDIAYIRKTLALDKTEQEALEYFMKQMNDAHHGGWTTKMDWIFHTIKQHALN

TGFBR1 = TGFBR1 (Homo sapiens, UniProt P36897)
DMPK2 = biological target: T5, DMPK2 (Homo sapiens, UniProt Q6DT37)
T5 construct: gene CDC42BPG

MAST1 = MAST1 (Homo sapiens, UniProt Q9Y2H9)
LOK = biological target: T6, LOK (Homo sapiens, UniProt O94804)
T6 construct: gene STK10

remaining activity at 1 µM (PIK3CG): 100%
remaining activity at 1 µM [1]: 82%
remaining activity at 1 µM (BRAF(V600E)): 100%
remaining activity at 1 µM (KIT(D816H)): 100%
remaining activity at 1 µM (FLT4): 96%
remaining activity at 1 µM (MAP3K4): 56%
remaining activity at 1 µM [2]: 100%
remaining activity at 1 µM (S6K1): 100%
remaining activity at 1 µM (CDK8): 37%
remaining activity at 1 µM (MEK3): 100%
remaining activity at 1 µM (PRKG2): 98%
remaining activity at 1 µM (MAPKAPK2): 100%
remaining activity at 1 µM (AURKC): 100%
remaining activity at 1 µM (CLK2): 86%
remaining activity at 1 µM (TEC): 96%
remaining activity at 1 µM (EGFR(L858R,T790M)): 100%
remaining activity at 1 µM (LRRK2): 100%
remaining activity at 1 µM (KIT-autoinhibited): 100%
remaining activity at 1 µM (PRKD1): 95%
remaining activity at 1 µM (RET): 94%
remaining activity at 1 µM (AMPK-alpha1): 83%
remaining activity at 1 µM (CASK): 100%
remaining activity at 1 µM (FLT3): 56%
remaining activity at 1 µM (BRSK1): 98%
remaining activity at 1 µM (CSNK2A2): 93%
remaining activity at 1 µM (CDK3): 97%
remaining activity at 1 µM (PFTAIRE2): 86%
remaining activity at 1 µM (ITK): 97%
remaining activity at 1 µM (ANKK1): 63%
remaining activity at 1 µM (PAK1): 84%
remaining activity at 1 µM (PIK3CA(Q546K)): 100%
remaining activity at 1 µM (TGFBR1): 96%
remaining activity at 1 µM (DMPK2): 100%
remaining activity at 1 µM (MAST1): 100%
remaining activity at 1 µM (LOK): 72%
SMILES: Cc1cn(-c2cc(NC(=O)c3ccc4c(c3)CN(c3cncnc3)C[C@@H]4C)cc(C(F)(F)F)c2)cn1 [Compound 6j]
